Results on 3 compounds are retold here after ChEMBL document CHEMBL1944561, “Discovery and SAR exploration of a novel series of imidazo[4,5-b]pyrazin-2-ones as potent and selective mTOR kinase inhibitors” (Bioorg Med Chem Lett, 2011).

For assay [1], the target named is Ribosomal protein S6 kinase alpha-1 (Homo sapiens) (UniProt Q15418). Description: Inhibition of Rsk1 assessed as activity remaining at 10 uM.
The target of assay [2] is Misshapen-like kinase 1 (Homo sapiens) (UniProt Q8N4C8). The assay is described as follows: Inhibition of MINK assessed as activity remaining at 10 uM.
For assay [3], the target named is Glycogen synthase kinase-3 alpha (Homo sapiens, UniProt P49840). The assay is described as follows: Inhibition of GSK3alpha assessed as activity remaining at 10 uM.
Assay [4] addresses Tyrosine-protein kinase CSK (Homo sapiens) (UniProt P41240). The assay is described as follows: Inhibition of CSK assessed as activity remaining at 10 uM.
Assay [5] concerns the target Serine/threonine-protein kinase PLK3 (Homo sapiens) (UniProt Q9H4B4). Description: Inhibition of Plk3 assessed as activity remaining at 10 uM.
Assay [6] addresses RAC-alpha serine/threonine-protein kinase (Homo sapiens) (UniProt P31749). The assay is described as follows: Inhibition of PKB-alpha assessed as activity remaining at 10 uM.
Assay [7] deals with Mitogen-activated protein kinase 1 (Homo sapiens) (UniProt P28482). The assay is described as follows: Inhibition of MAPK1 assessed as activity remaining at 10 uM.
Assay [8] in a line: Inhibition of CK2 assessed as activity remaining at 10 uM.
In assay [9] the target is Macrophage colony-stimulating factor 1 receptor (Homo sapiens) (UniProt P07333). The assay is described as follows: Inhibition of Fms assessed as activity remaining at 10 uM.
Assay [10] deals with Cyclin-dependent kinase 2 (Homo sapiens) (UniProt P24941). Description: Inhibition of CDK2 assessed as activity remaining at 10 uM.
Assay [11] deals with Angiopoietin-1 receptor (Homo sapiens) (UniProt Q02763). The assay is described as follows: Inhibition of Tie2 assessed as activity remaining at 10 uM.
The target in assay [12] is Serine/threonine-protein kinase mTOR (Homo sapiens, UniProt P42345). The assay is described as follows: Inhibition of mTOR-mediated Akt phosphorylation in human PC3 cells. Type of assay: cell-based, PC-3.
For assay [13], the target named is T1, Interleukin-1 receptor-associated kinase 4 (Homo sapiens) (UniProt Q9NWZ3).
T1 sequence (whole entry): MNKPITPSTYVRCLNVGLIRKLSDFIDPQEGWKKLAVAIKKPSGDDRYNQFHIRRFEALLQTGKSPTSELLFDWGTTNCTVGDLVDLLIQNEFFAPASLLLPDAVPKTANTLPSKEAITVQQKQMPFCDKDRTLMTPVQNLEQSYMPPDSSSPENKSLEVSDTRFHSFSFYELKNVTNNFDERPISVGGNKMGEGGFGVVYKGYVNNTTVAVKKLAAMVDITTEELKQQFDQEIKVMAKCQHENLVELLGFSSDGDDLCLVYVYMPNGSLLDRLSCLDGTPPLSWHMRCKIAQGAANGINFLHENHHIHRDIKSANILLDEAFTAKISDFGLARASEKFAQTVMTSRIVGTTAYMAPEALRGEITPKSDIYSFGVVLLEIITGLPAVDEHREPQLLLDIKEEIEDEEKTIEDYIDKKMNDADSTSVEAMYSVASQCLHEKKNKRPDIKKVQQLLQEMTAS
The assay is described as follows: Inhibition of IRAK4 assessed as activity remaining at 10 uM.

A short description of assay [14]: Inhibition of PKA assessed as activity remaining at 10 uM.
The target in assay [15] is T2, Ephrin type-B receptor 4 (Homo sapiens) (UniProt P54760).
T2 sequence (whole entry): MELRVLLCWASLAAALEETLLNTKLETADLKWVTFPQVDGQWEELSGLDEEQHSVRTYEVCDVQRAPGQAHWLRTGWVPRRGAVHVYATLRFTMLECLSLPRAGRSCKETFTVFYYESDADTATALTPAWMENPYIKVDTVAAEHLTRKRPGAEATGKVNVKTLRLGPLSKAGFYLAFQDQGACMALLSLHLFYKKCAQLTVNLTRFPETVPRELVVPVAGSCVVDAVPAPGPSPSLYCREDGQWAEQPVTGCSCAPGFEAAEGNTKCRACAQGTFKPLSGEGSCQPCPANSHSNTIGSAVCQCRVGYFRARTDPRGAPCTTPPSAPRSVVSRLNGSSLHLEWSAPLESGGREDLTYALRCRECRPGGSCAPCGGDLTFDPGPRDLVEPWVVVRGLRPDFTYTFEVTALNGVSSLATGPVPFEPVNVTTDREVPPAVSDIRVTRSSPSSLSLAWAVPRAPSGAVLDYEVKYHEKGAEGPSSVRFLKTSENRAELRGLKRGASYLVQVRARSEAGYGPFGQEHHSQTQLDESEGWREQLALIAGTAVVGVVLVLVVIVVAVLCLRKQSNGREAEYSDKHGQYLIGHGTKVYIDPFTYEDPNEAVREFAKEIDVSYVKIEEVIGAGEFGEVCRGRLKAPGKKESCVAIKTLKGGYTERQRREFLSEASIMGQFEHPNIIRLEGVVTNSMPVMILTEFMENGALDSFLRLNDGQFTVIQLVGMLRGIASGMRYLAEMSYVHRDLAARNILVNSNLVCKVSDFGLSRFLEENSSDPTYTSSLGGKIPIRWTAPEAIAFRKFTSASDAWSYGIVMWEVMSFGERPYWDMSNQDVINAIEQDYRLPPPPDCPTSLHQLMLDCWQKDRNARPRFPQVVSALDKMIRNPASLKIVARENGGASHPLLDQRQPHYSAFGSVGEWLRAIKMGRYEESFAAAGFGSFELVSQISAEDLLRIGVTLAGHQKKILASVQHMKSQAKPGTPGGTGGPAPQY
The assay is described as follows: Inhibition of EphB4 assessed as activity remaining at 10 uM.

The target in assay [16] is T3, Serine/threonine-protein kinase Sgk1 (Homo sapiens) (UniProt O00141).
T3 sequence (whole entry): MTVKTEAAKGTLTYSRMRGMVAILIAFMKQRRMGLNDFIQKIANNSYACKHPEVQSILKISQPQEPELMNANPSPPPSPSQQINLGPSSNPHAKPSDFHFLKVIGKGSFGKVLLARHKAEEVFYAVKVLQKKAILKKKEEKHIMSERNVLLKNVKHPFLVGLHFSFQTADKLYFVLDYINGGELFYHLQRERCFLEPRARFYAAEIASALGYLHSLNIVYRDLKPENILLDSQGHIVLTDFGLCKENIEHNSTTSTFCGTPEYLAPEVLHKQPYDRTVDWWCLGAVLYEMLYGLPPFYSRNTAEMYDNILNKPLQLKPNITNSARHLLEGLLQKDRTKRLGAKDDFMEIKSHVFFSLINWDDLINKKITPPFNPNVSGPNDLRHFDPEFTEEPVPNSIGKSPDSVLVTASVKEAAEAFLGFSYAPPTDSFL
Description: Inhibition of SGK assessed as activity remaining at 10 uM.

Sequence of Glycogen synthase kinase-3 alpha (P49840 2-483 limits assumed): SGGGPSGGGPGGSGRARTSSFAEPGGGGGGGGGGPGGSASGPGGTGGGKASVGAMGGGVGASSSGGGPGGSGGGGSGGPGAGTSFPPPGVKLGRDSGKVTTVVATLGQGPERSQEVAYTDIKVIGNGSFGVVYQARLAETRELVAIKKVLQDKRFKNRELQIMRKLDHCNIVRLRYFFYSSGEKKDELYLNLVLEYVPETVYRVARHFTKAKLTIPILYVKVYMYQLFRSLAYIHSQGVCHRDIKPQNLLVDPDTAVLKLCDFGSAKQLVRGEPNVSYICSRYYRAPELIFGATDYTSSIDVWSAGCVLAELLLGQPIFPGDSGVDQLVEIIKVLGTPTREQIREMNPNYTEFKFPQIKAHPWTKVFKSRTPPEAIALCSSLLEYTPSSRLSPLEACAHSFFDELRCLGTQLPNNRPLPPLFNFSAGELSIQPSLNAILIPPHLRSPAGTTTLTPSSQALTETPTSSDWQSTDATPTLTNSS
Sequence of Macrophage colony-stimulating factor 1 receptor (Homo sapiens) (P07333 whole entry): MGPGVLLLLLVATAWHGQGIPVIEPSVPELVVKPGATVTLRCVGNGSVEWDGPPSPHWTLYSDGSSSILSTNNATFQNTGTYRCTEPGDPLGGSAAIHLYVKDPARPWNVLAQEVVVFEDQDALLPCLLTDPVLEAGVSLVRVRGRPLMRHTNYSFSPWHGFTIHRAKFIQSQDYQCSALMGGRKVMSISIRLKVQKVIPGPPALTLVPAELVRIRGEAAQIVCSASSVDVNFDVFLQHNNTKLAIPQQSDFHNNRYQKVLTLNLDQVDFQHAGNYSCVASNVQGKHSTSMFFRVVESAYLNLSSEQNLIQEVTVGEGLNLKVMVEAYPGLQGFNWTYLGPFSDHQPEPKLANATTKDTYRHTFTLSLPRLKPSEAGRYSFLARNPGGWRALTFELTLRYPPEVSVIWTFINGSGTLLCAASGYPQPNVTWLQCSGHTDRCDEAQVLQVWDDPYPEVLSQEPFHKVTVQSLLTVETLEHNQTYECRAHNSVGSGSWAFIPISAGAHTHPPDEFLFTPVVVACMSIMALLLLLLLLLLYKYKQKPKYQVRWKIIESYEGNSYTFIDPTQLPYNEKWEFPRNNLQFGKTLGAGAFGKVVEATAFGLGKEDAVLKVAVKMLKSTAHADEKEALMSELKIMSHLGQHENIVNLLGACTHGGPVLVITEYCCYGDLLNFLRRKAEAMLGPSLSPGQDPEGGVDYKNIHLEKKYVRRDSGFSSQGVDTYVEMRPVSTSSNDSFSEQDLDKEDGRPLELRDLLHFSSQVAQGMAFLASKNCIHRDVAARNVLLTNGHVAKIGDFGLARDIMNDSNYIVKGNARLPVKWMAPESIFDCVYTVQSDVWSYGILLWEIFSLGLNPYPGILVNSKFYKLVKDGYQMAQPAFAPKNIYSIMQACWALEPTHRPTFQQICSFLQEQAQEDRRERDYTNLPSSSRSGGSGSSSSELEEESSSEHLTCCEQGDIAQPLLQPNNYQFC
Sequence of Ribosomal protein S6 kinase alpha-1 (Homo sapiens) (Q15418 whole entry): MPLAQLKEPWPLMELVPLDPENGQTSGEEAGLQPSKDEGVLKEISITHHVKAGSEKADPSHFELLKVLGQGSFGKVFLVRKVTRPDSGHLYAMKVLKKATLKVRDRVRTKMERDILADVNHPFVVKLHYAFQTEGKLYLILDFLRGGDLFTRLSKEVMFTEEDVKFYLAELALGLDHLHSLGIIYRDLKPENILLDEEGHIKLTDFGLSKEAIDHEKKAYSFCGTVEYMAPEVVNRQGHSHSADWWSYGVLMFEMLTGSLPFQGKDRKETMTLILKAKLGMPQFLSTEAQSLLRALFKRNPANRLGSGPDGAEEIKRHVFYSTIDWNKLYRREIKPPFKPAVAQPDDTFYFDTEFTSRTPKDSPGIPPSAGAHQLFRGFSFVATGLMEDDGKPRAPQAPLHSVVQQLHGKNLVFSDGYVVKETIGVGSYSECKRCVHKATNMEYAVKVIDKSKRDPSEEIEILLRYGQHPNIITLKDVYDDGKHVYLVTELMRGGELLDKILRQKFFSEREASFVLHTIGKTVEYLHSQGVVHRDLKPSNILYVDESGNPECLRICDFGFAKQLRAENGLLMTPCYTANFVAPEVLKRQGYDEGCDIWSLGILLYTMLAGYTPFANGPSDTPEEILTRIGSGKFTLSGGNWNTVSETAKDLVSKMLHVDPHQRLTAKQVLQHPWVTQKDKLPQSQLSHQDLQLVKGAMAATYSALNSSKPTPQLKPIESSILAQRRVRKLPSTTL
Sequence of RAC-alpha serine/threonine-protein kinase (Homo sapiens) (P31749 whole entry): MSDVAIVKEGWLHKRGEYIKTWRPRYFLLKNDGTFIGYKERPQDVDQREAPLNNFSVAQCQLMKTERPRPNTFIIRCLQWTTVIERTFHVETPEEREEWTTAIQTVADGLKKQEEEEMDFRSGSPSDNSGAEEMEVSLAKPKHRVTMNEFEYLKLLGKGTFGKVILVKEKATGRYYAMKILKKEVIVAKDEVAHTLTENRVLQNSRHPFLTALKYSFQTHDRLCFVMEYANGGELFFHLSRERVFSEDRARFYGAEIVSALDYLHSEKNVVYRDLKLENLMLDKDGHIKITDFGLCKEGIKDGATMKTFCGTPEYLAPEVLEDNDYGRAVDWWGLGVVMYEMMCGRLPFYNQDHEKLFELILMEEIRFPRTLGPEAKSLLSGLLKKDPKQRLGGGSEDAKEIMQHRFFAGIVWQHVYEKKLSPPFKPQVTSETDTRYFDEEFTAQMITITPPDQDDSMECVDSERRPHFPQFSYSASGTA
Sequence of Mitogen-activated protein kinase 1 (Homo sapiens) (P28482 whole entry): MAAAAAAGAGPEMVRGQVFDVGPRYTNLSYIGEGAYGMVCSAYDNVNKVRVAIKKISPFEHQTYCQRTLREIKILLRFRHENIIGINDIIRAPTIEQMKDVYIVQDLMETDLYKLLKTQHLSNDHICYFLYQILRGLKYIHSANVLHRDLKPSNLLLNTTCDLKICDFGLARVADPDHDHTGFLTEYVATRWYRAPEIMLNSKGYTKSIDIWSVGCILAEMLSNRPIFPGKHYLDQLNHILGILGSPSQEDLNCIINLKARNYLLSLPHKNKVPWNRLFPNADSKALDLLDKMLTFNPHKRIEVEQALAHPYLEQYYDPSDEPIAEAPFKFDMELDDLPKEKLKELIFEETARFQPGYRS
Sequence of Serine/threonine-protein kinase PLK3 (Homo sapiens) (Q9H4B4 whole entry, looked up): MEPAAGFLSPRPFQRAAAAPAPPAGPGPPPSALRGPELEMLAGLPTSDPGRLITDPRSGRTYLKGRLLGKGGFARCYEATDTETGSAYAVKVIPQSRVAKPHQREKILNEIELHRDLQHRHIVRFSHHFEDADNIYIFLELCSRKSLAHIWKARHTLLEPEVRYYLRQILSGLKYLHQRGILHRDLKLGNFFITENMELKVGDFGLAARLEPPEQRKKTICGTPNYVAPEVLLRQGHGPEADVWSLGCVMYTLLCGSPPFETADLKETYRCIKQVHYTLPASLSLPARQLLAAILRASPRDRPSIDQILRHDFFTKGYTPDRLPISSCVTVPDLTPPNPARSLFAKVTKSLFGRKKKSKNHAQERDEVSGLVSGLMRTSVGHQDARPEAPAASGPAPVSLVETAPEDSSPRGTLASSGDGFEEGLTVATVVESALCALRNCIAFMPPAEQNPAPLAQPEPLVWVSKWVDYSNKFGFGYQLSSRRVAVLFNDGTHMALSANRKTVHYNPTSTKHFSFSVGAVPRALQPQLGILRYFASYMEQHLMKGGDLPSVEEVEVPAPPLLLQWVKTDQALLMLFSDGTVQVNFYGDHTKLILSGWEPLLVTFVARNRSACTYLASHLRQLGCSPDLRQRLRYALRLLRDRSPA
Sequence of Misshapen-like kinase 1 (Homo sapiens) (Q8N4C8 whole entry, looked up): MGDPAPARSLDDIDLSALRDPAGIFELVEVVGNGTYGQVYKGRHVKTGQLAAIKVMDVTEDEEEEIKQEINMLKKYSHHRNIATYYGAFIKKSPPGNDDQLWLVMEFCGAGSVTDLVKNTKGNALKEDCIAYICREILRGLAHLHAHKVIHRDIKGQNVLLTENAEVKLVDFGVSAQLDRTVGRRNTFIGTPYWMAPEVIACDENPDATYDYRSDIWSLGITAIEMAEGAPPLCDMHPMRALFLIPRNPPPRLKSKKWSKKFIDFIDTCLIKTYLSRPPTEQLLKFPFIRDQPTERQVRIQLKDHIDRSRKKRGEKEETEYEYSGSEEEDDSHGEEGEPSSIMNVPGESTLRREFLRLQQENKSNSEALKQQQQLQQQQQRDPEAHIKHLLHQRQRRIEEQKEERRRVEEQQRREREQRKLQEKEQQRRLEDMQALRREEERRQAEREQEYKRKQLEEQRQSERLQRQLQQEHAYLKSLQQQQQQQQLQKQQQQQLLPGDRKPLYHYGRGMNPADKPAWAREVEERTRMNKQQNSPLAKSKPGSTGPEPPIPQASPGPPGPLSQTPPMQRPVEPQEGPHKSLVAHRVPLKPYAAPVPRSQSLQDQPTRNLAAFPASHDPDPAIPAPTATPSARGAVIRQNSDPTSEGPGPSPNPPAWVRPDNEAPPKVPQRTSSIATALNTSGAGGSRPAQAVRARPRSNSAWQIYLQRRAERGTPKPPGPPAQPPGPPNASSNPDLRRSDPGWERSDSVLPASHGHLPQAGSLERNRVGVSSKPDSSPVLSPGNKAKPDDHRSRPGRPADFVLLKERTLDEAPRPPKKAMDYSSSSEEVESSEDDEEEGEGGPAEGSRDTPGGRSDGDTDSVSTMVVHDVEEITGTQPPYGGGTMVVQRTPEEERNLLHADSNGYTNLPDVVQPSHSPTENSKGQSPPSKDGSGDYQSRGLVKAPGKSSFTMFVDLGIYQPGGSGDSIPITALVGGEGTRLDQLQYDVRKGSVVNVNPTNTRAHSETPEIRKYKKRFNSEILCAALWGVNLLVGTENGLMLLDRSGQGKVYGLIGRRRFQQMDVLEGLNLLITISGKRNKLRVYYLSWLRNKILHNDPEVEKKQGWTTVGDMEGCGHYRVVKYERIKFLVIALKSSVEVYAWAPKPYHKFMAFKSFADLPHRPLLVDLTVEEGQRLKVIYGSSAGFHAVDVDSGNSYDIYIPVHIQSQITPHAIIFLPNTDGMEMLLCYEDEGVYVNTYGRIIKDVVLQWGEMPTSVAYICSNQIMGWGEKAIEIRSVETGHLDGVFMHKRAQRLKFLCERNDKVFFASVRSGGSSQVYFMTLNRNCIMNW

Turning to `O=c1[nH]c2ncc(-c3ccc(-c4nc[nH]n4)cc3)nc2n1CC1CCOCC1`, the Activity in [1] was found to be 93%; in [2], 92%; in assay [3] it was 39%; in assay [4], 96%; in [5], 108%; in [6], 97%. Besides, the Activity stood at 86% in assay [7]; 99% in assay [8]; 37% in [9]; 90% in [10]; 86% in assay [11]; 97% in [13]. Besides, the results for the Activity in assay [14], in assay [15] and in assay [16] were 95%, 97% and 97%, respectively. For the same compound, in assay [12], the IC50 came to 150 nM.

Take `O=c1[nH]c2ncc(-c3ccc4[nH]cnc4c3)nc2n1CC1CCCCC1`: the Activity in [1] is 74%; in assay [2] it was 42%; in assay [3], 3%; in [4], 90%; in assay [5], 94%; in [6] it was 92%. For the same compound, the Activity was 110% in assay [7]; 73% in [8]; 23% in assay [9]; 81% in [10]; 83% in assay [11]; 112% in [13]. The Activity in [14] was determined as 90%; in assay [15], 96%; in [16], 53%. The compound further returned an IC50 in [12] of 137 nM.

As to `CC(C)(O)c1ccc(-c2cnc3[nH]c(=O)n(CC4CCCCC4)c3n2)cc1`, the Activity in assay [1] is 89%; in [2], 83%; in [3], 16%; in assay [4], 86%; in assay [5] it was 89%; in assay [6] it was 94%. Further, the Activity is 95% in [7]; 95% in assay [8]; 26% in assay [9]; 81% in assay [10]; 85% in [11]; 87% in assay [13]. The Activity was found to be 95% in assay [14], 90% in assay [15] and 96% in assay [16]. Also, the half-maximal inhibitory concentration (IC50) in [12] is 322 nM.
